Assay results from patent publication US9622495B2, “Methods to decontaminate cereal grains with chlorine dioxide” (Diversey, Inc., priority 2011, dated 2017).
“And” between values parts separate entries of the source, which are not always exact repeats. Identical values can stand only once.

Experiments:
[1] = system: Fusarium; experiment: Treatment of barley artificially contaminated with Fusarium with chlorine dioxide solutions (test tube, plate count); assay type: cell-based
Description: The performance of chlorine dioxide was investigated to reduce initial Fusarium load on barley. Prior to treatment with chlorine dioxide, barley samples were artificially contaminated with cells of Fusarium by spraying and drying.
Methods. Chlorine dioxide solutions were generated using Diversey's ClearKlens Bi-Spore Set (Base VH26 and Activator VH 26). Fresh stock solutions were prepared following product use instructions. Concentrations of chlorine dioxide in stock and use solutions were determined with a Dr. Lange test-kit (LCK 310/343) and photometric DR 2800 device. Chlorine dioxide use solutions were prepared diluting the Bi-Spore stock solution with aid of CEN hard water diluent (300 mg/kg CaCO3). The neutralizing solution was based on sodium thiosulfate (5 g/L in ¼ strength Ringer solution). Experiments were carried out at ambient temperature and no soil on the basis of EN 1276. Chlorine dioxide use solutions for testing were determined to be 1 ppm and 10 ppm.
Test runs were conducted as follows. In a test tube, chlorine dioxide solution (10 ml) was added to barley (1 g) and the start time of the experiment was recorded. Barley and chlorine dioxide were mixed by vortexing for 10 seconds and then allowed to react for one hour. After treating the barley with chlorine dioxide solution for one hour, the solution was decanted. Shortly thereafter, a subsequent treatment for either 60 or 300 min with a fresh solution containing either 1 ppm ClO2 or 10 ppm ClO2 was performed. After completion of the second treatment, a portion of the mixture (1 mL) was pipetted into 9 ml of neutralizer and mixed. After 5 minutes reaction time, 1 mL of the neutralized solution was added to 9 mL Ringer diluent. A dilution series was prepared up to 1:10,000. From each dilution step, 1 mL (in duplicate) was plated on potato dextrose agar. Plates were incubated at 30° C. for 62 hours. Grown colonies on plates were counted and expressed at CFU per gram barley. A control experiment using Ringer solution instead of chlorine dioxide was performed following the same procedure.

[2] = system: Fusarium; experiment: Fusarium counts on barley, chlorine dioxide in second steeping, pilot steeping chamber (Example 2); assay type: cell-based
Description: (§1) Test protocol. Harvested barley from a high load Fusarium batch was provided by Czech Malt and Brew Institute. A starting probe (parallel) was taken to determine initial cell load on barley with Fusarium. Barley (1 g) was whirled in Ringer-solution (10 ml) to detach cells. After thorough whirling ten-fold dilutions steps in sterile Ringer-solution were prepared. 1 ml sample in parallel from dilution steps 10^−4, 10^−5 and 10^−6 were poured with sterile potato agar medium. Chlorine dioxide treated barley was prior to dilution series once washed with Ringer-solution to remove residual Chlorine dioxide. Plates were transferred into a temperature-controlled (30° C.) incubation box and grown for 3-5 days until colony formation was observed. Colonies were counted and calculated to CFU/g. Boxes with barley were placed into a steeping/germination box. The chamber was filled with town tap water for the first steeping and to remove dust and dirt. With help of Dulcotest DT1 photometer (Prominent), the free chlorine in tap water was determined to be 0.17 ppm. The first steeping was performed for 5 hours at about 14.5° C. During this time the water content in exposed barley increased up to 31.8%. After the first steeping residual water was drained. A second (parallel) barley sample was taken to determine the Fusarium load. The steeped barley was then exposed to air until next morning (approximately 16 hours), and a third (parallel) barley sample was taken to determine Fusarium load.
(§2) The second steeping was performed using an aqueous solution of chlorine dioxide. The aqueous solution was made of Diversey Bi-Spore as described in Example 1. The chlorine dioxide steeping solution was prepared from stock by diluting with town tap water. The chlorine dioxide concentration of the steeping solution was determined to be 12 ppm.
(§3) Four boxes with 0.5 kg barley each were placed into a plastic container, which then was filled with 11 L of above mentioned chlorine dioxide steeping solution. The plastic container was transferred into the steeping/germination chamber and left for another 4 hour steeping period. The chlorine dioxide concentration was periodically monitored using Dr. Lange test-kits (LCK 310/343) and DR 2800 device. (Parallel) Barley samples were taken to determine residual cell load of Fusarium after the chlorine dioxide steeping.
After second steeping with chlorine dioxide, the boxes were exposed to air in the closed chamber for another 20 hour period. The water level was determined to 38.1% and then adjusted to final 45.5% after a third steeping with tap water for a period of 2.5 hours. A final parallel barley sample was taken to determine residual cell load with Fusarium prior to germination. Treated barley then was further processed according to a quality parameter protocol of the Malting Institute.

[3] = Chlorine dioxide concentration in the steeping solution during steeping; assay type: physicochemical; settings: for ClO2 concentration in the steeping solution: Example 2, second steeping
Description: as §2, §3
(§4) A comparison test with a batch of barley treated with chlorine dioxide in second steeping versus a control using tap water only was carried out following the procedure described in Example 2. The chlorine dioxide in the second steeping solution was determined as initial 11 ppm and dropped to 8 ppm at the end of steeping (4 hour in total, data not shown). The effect on reduction of Fusarium counts were determined.

[4] = system: Fusarium; experiment: Fusarium counts on barley, chlorine dioxide in second steeping versus tap water blank (Example 3); assay type: cell-based
Description: as §1, §4

[5] = system: Fusarium mycotoxins (deoxynivalenol, zearalenon) and deoxynivalenol-3-glucoside; experiment: Mycotoxin content of barley by LC-MS/MS
Description: The barley was also analyzed for representative mycotoxin content as follows. The high-performance liquid chromatography with mass detection (LC-MS/MS) was used for the determination of the selected Fusarium mycotoxins (deoxynivalenol, zearalenon) and deoxynivalenol-3-glucoside in brewing raw materials. After extraction, the homogenized samples were filtered and purified on the SPE column or immunoaffinity column. Subsequently, they were concentrated using a vacuum evaporator, transferred to aqueous methanol and analyzed with the LC-MS/MS.

[6] = system: Fusarium; experiment: Industrial-scale treatment of barley with chlorine dioxide (about 10 ppm) in second steeping, Fusarium counts; assay type: cell-based; settings: in words
Description: Two independent comparison tests with batches of barley treated with chlorine dioxide in a second steeping, versus control steepings using tap water only, were carried out at industrial scale at an industrial malting site following the procedure described in Example 2. Each batch included about 56 m^3 of barley, the ratio of aqueous chlorine dioxide to barley was about 1:1, and chlorine dioxide (about 10 ppm) was added during second steeping. There was no further dosage of ClO2 during the subsequent germination phase. The effect on reduction of Fusarium counts at industrial-scale were determined at distinct phases: after a first air break, after the second steeping, and during the green malt stage (after barley germination).

[7] = system: Fusarium; experiment: Industrial-scale spraying of barley with aqueous chlorine dioxide (20 ppm) during germination, Fusarium counts; assay type: cell-based; settings: for Log N Fusarium counts: sprayed with aqueous ClO2 (20 ppm) during germination, samples 11B, 12B
Description: Comparison tests were conducted with two batches of barley at the same industrial malting site of Example 5, to determine the effect of ClO2 upon Fusarium counts where the barley is sprayed with aqueous ClO2 (20 ppm) during germination. Both batches were treated with tap water during the steeping stage. Batches 11A and 12A were also sprayed with tap water during germination, whereas batches 11B and 12B were sprayed with aqueous ClO2 (20 ppm) during germination. Each batch of barley weighed approximately 56 metric tons when dry and absorbed approximately 40-50% water by weight during the steeping and germination steps. For example, the barley typically absorbed about 41-42% water during steeping. During germination water content in the barley further increased to about 45-46%. During germination, the steeped batch of barley was sprayed with about 8.8 m^3 aqueous chlorine dioxide (20 ppm) solution (i.e., about 0.15 m^3 aqueous chlorine dioxide solution per metric ton of dry grain).

[8] = system: Fusarium; experiment: Fusarium counts on barley, chlorine dioxide in second steeping, pilot steeping chamber (Example 2); assay type: cell-based; remark: listed apart in the source
[9] = 10 ppm + 1 ppm ClO2, contact time 60 min + 60 min
[10] = 10 ppm + 1 ppm ClO2, contact time 60 min + 300 min
[11] = 10 ppm + 10 ppm (2nd steep) ClO2, contact time 60 min + 60 min
[12] = 10 ppm + 10 ppm (2nd steep) ClO2, contact time 60 min + 300 min
[13] = ClO2-treated batch, after third steeping with tap water
[14] = ClO2-treated batch, after third steeping with tap water, second sample
[15] = after second steeping with ClO2 (4 hours), 12 ppm
[16] = after second steeping with ClO2 (4 hours), 12 ppm, second sample
[17] = second steeping step with chlorine dioxide
[18] = after 2nd steeping with ClO2 (4 hours)
[19] = Bojos barley after steeping with chlorine dioxide

[O][Cl+][O-] [ClO2, chlorine dioxide]
CFU/g after treatment [1, 9]: 3.3 × 10^6 CFU/g
R (log batch control − log batch ClO2), reduction in viability [1, 9]: 1.06
CFU/g after treatment [1, 10]: 1.3 × 10^7 CFU/g
R (log batch control − log batch ClO2), reduction in viability [1, 10]: 0.47
CFU/g after treatment [1, 11]: 1.1 × 10^4 CFU/g
R (log batch control − log batch ClO2), reduction in viability [1, 11]: 3.58
CFU/g after treatment [1, 12]: 5 × 10^3 CFU/g
R (log batch control − log batch ClO2), reduction in viability [1, 12]: 3.88
Fusarium counts on barley compared to a control without chlorine dioxide ([1]; Example 1, in words): clear reduction
Fusarium counts, Mean value (CFU/g) [2, 13]: 2.47 × 10^5 CFU/g
Fusarium counts, Sample 1 (CFU/g) [2, 13]: 2.47 × 10^5 CFU/g
Fusarium counts, Sample 1 (CFU/g) [2, 14]: 2.47 × 10^5 CFU/g
Fusarium counts, Mean value (CFU/g) [2, 15]: 5.16 × 10^4 CFU/g
Fusarium counts, Sample 1 (CFU/g) [2, 15]: 5.23 × 10^4 CFU/g
Fusarium counts, Sample 1 (CFU/g) [2, 16]: 5.09 × 10^4 CFU/g
Fusarium in malted barley produced from the treated batch ([2]; malted barley, data not shown): free from Fusarium
Reduction of Fusarium numbers on barley (%) [2, 17]: 94.15%
Reduction of Fusarium numbers on barley (log) [2, 17]: 1.24 log
ClO2 concentration in the steeping solution ([3]; time 0 min): 12.2 mg/L
ClO2 concentration in the steeping solution ([3]; time 80 min): 11.8 mg/L
ClO2 concentration in the steeping solution ([3]; time 140 min): 7.4 mg/L
ClO2 concentration in the steeping solution ([3]; time 190 min): 9.5 mg/L
ClO2 concentration in the steeping solution ([3]; time 240 min): 6.4 mg/L
Chlorine dioxide in the second steeping solution, end of steeping ([3]; Example 3, end of steeping (4 hour in total)): 8 ppm
Chlorine dioxide in the second steeping solution, initial ([3]; Example 3, start of steeping): 11 ppm
% reduction vs. untreated control ([4]; after 2nd aeration (20 hours)): 93.09%
Fusarium counts, treated with ClO2, mean value (CFU/g) ([4]; after 2nd aeration (20 hours)): 4.41 × 10^3 CFU/g
Fusarium counts, treated with ClO2, sample 1 (CFU/g) ([4]; after 2nd aeration (20 hours)): 4.69 × 10^3 CFU/g
Fusarium counts, treated with ClO2, sample 2 (CFU/g) ([4]; after 2nd aeration (20 hours)): 4.13 × 10^3 CFU/g
log reduction vs. untreated control ([4]; after 2nd aeration (20 hours)): 1.17
% reduction vs. untreated control [4, 18]: 93.44%
Fusarium counts, treated with ClO2, mean value (CFU/g) [4, 18]: 4.56 × 10^3 CFU/g
Fusarium counts, treated with ClO2, sample 1 (CFU/g) [4, 18]: 4.37 × 10^3 CFU/g
Fusarium counts, treated with ClO2, sample 2 (CFU/g) [4, 18]: 4.75 × 10^3 CFU/g
log reduction vs. untreated control [4, 18]: 1.18
% reduction vs. untreated control ([4]; after 3rd steeping): 92.59%
Fusarium counts, treated with ClO2, mean value (CFU/g) ([4]; after 3rd steeping): 3.14 × 10^3 CFU/g
Fusarium counts, treated with ClO2, sample 1 (CFU/g) ([4]; after 3rd steeping): 3.12 × 10^3 CFU/g
Fusarium counts, treated with ClO2, sample 2 (CFU/g) ([4]; after 3rd steeping): 3.15 × 10^3 CFU/g
log reduction vs. untreated control ([4]; after 3rd steeping): 1.13
Fusarium counts compared to the control steeped with tap water only ([4]; chlorine dioxide in second steeping, in words): significantly lower
DON concentration on barley [5, 19]: 450.4 µg/kg
DON_3_Glc concentration on barley [5, 19]: 751 µg/kg
ZON concentration on barley [5, 19]: 12.1 µg/kg
DON ([5]; Bojos barley steeped with chlorine dioxide, Table 7): 450.4 µg/kg
Mycotoxin concentration of DON and DON_3_Glc on barley compared to initial load of untreated barley or barley steeped with water only ([5]; in words): significantly lower
ZON level compared to tap water only ([5]; in words): significantly less
Level of ZON after steeping compared to initial load ([5]; in words, independently of whether water or chlorine dioxide was used): increased
Fusarium counts compared to control batches steeped with tap water [6]: significantly lower
Fusarium counts on barley compared to control batch sprayed with tap water ([7]; industrial scale, sprayed during germination, in words): significantly lower
Log N Fusarium counts ([7]; Day 1): 5.9 and 5.8
Log N Fusarium counts ([7]; Day 2): 5.2
Log N Fusarium counts ([7]; Day 3): 5.2
Log N Fusarium counts ([7]; Day 4): 4.3
Log N Fusarium counts ([7]; Day 5): 4.1 and 4.0
Fusarium counts, Mean value (CFU/grain) [8, 13]: 1.98 × 10^4 CFU/grain
Fusarium counts, Sample 1 (CFU/grain) [8, 13]: 1.90 × 10^4 CFU/grain
Fusarium counts, Sample 1 (CFU/grain) [8, 14]: 2.06 × 10^4 CFU/grain
Fusarium counts, Mean value (CFU/grain) [8, 15]: 3.69 × 10^3 CFU/grain
Fusarium counts, Sample 1 (CFU/grain) [8, 15]: 3.74 × 10^3 CFU/grain
Fusarium counts, Sample 1 (CFU/grain) [8, 16]: 3.64 × 10^3 CFU/grain
